Experimental data: patent US7449495B2, “Retinoid derivatives with antiangiogenic, antitumoral and proapoptotic activities” (Sigma-Tau Industrie Farmaceutiche Riunite S.p.A., priority 2001, dated 2008)

Tests used:
[1] = system: Human ovarian carcinoma IGROV-1; experiment: Cytotoxicity test (sulphorodamine B), IGROV-1; type: cell-based; settings: 24 h incubation, survival 48 h after removal
Source text: Different cell lines deriving from solid tumors were also used. • 1. Human prostate carcinoma PC3 and DU145. These cell lines were maintained in RPMI 1640 medium containing 10% FCS, 1% sodium pyruvate and 1% glutamine; • 2. Human colon adenocarcinoma LoVo. This cell line was maintained in HAM's F-12 medium, containing 10% FCS and 1% glutamine. • 3. Human ovarian carcinoma such as A2780 and A2780/Dx, sensitive and resistant to drugs, respectively (doxorubicin, taxol, etoposide, vincristine); IGROV-1 and IGROV-1/Pt, sensitive and resistant to platinum-based chemotherapy, respectively, were maintained in RPMI 1640 medium containing 10% FCS, 1% sodium pyruvate and 1% glutamine; • 4. Human melanoma MeWo and MeS 2.21, glioblastoma GBM, no small cell lung carcinomas A431, NCI—H460, osteosarcomas SAOS and U2OS were maintained in RPMI 1640 medium containing 10% FCS, 1% sodium pyruvate and 1% glutamine.
The cytotoxicity tests were carried out using NB4 or HL-60 cells in suspension (10000/well). The cells were seeded in a volume of 250 μl in 96 well plates and incubated for 24 hours at 37° C. […] The optical density was measured using a Multiskan spectrophotometer at 540 nm. […]
Cell survival was determined by incubation with ST1926 for 24 hours, 48 hours after the removal of the compound. […]

[2] = system: multidrug-resistant human ovarian carcinoma A2780/Dx; experiment: Antitumoral activity in human ovarian carcinoma model A2780/Dx; type: in vivo, CD1 nu/nu mice; settings: qdx5x3w
Protocol: The human ovarian carcinoma cells A2780, A2780/Dx and NCIH460 were maintained in RPMI-1640 containing 10% FCS, 2 mM glutamine, 50 μg/ml gentamicin, at 37° C. in a humidified atmosphere containing 5% CO2. The cells were trypsinised, collected in complete medium, centrifuged at approx. 1100 rpm for 10 minutes and the precipitate resuspended in Hank's 199 Medium; this operation was carried out twice. The cells were resuspended in Hank's 199 Medium at a density of 20×10^6/ml and 0.1 ml (equal to 2×10^6 cells/mouse) were injected s.c. into the right flank of CD1 nu/nu 6 week-old, female mice.
The ST1926 solution was prepared immediately before use and solubilised in cremophor:ethanol 1:1 and subsequently diluted 1:4 in buffered saline solution. The animal treatments were administered in a volume of 10 ml/kg. The treatment protocol for ST1926 at different doses was for 5 consecutive days (qd×5), beginning one day following tumor cell inoculation and repeated for 3 cycles. Measurements of tumor dimensions were performed using a digital calliper (Vernier Caliper) twice weekly, from the time in which the mass was measurable. The tumor mass was evaluated from the size of the two principal dimensions (length and breadth), expressed in mm, applying the formula (length×breadth^2)/2, that is, the tumor volume in mm3. For each experimental group, the percentage of tumor volume inhibition was calculated (TVI %), with respect to the control, namely (100−(T/C %). TVI was evaluated 2 days after the final administration of ST1926.
The mice were measured until the control group tumors had reached a weight of 2 g, then the mice were sacrificed by cervical dislocation.
A comparison between the TVI values obtained for each group was performed using the non parametric Mann Whitney test for non-paired data, using the Instat software from GraphPad inc.
The mice were weighed prior to each treatment, firstly, so as to be able to administer the correct quantity of substance based on the possible changes in weight observed throughout the course of administration of the drug, and also to record the maximum weight loss throughout the treatment (BWL % max).

[3] = system: chicken chorioallantoic membrane vessels, bFGF induced; experiment: Angiostatic activity in chicken chorioallantoic membrane (CAM) model; type: in vivo; settings: bFGF 0.05 + compound 0.25 μg/embryo
Source text: The chicken chorioallantoic membrane is a very vascularised membrane in which the vessels make their appearance at the 4th day of development, develop an arteriovenal system by the 8th day of development, and actively proliferate until the 11th day.
The aim of the study was to follow vasal development in the CAM under basal conditions and in the presence of an inducer bFGF (basic Fibroblast Growth Factor) of vasoproliferation. This study used chicken embryonal eggs at the initial stage of their development. On the 3rd day of development an operation to open the shells was performed to make the vessels of the CAM visible. The treatment was administered on the 9th day of development by applying a fragment of sterile gelatine (GELFOAM Pharmacia-Upjohn) about 1 mm^3, to the CAM surface, onto which was administered the bFGF (50 ng/embryo) or the products in question, for 3 consecutive days.
The evaluation of the effect of the molecule on vasoproliferation was obtained by a comparison of the vessels at the time of zero treatment with these of later times (12th day).

[4] = system: KG-1 and HL-60R leukemia and MDA-MB-231 breast cancer cells; settings: cited from earlier work
[5] = system: vitamin-A deficient hamster trachea in organ culture; settings: cited from earlier work
[6] = system: F9 embryonic teratocarcinoma cells; settings: cited from earlier work

In the case of `O=C(O)/C=C/c1ccc(-c2ccc(O)c(C34CC5CC(CC(C5)C3)C4)c2)cc1` [ST1926, E-4-(3-(1-adamantyl)-4-hydroxyphenyl)cinnamic acid], the IC50 [1] is reported as 230 nM, the “BWL % Max” value ([2]; 10 mg/kg po) is reported as 0% and the Lethality ([2]; 10 mg/kg po) is reported as 0/8. The “TVI % ± SE” value ([2]; 10 mg/kg po) was “*34 ± 3%”, the “BWL % Max” value ([2]; 15 mg/kg po) was 6% and the Lethality ([2]; 15 mg/kg po) was 0/8. For the same compound, the “TVI % ± SE” value ([2]; 15 mg/kg po) was “*54 ± 9%”, the “Δvessels, change vs bFGF alone” value [3] was “(−53%)” and the “12th day (72 hours), number of vessels per sponge” value ([3]; mean ± SE) was 12 ± 2 vessels per sponge. For the same compound, the Δvessels ([3]; mean ± SE) was 9 ± 2 vessels per sponge, the “induction of cancer cell apoptosis (in words)” value [4] was “effectively induced cancer cell apoptosis” and the “activity in the TOC assay compared with compound 1 (in words)” value [5] was “lower activities”. The “activity in the F9 assay compared with compound 1 (in words)” value [6] was “lower activities”.
